Results as given in PubChem BioAssay (NCI).
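Interpolation was linear, between the two tested concentrations surrounding the appropriate level; five concentrations were tested over 48 hours in 96-well plates. At the GI50, growth is halved. TGI denotes the concentration required for complete inhibition of growth.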

Tests used:
Assay in all cases: inhibition of tumour cell growth, NCI panel, 48 h
NCI-H226 lung = system: NCI-H226 lung
HOP-92 NSCLC = system: HOP-92 NSCLC
NCI-H23 lung = system: NCI-H23 lung
UACC-257 melanoma = system: UACC-257 melanoma
BT-549 breast = system: BT-549 breast
K-562 leukemia = system: K-562 leukemia
NCI-H460 lung = system: NCI-H460 lung
CAKI-1 renal = system: CAKI-1 renal
SN12C renal = system: SN12C renal
NCI/ADR-RES ovarian = system: NCI/ADR-RES ovarian
HOP-62 NSCLC = system: HOP-62 NSCLC
HL-60(TB) leukemia = system: HL-60(TB) leukemia
MDA-MB-231 breast = system: MDA-MB-231 breast
OVCAR-5 ovarian = system: OVCAR-5 ovarian
SF-295 CNS = system: SF-295 CNS
SNB-19 CNS = system: SNB-19 CNS
SNB-75 CNS = system: SNB-75 CNS
MOLT-4 leukemia = system: MOLT-4 leukemia
T-47D breast = system: T-47D breast
CCRF-CEM leukemia = system: CCRF-CEM leukemia
MCF7 breast = system: MCF7 breast
U251 CNS = system: U251 CNS
OVCAR-3 ovarian = system: OVCAR-3 ovarian
SK-OV-3 ovarian = system: SK-OV-3 ovarian
OVCAR-8 ovarian = system: OVCAR-8 ovarian
786-0 renal = system: 786-0 renal
SK-MEL-5 melanoma = system: SK-MEL-5 melanoma
PC-3 prostate = system: PC-3 prostate
HS 578T breast = system: HS 578T breast
A549 NSCLC = system: A549 NSCLC
RXF 393 renal = system: RXF 393 renal
KM12 colon = system: KM12 colon
HCT-15 colon = system: HCT-15 colon
LOX IMVI melanoma = system: LOX IMVI melanoma
SK-MEL-28 melanoma = system: SK-MEL-28 melanoma
COLO 205 colon = system: COLO 205 colon
SK-MEL-2 melanoma = system: SK-MEL-2 melanoma
ACHN renal = system: ACHN renal
RPMI-8226 leukemia = system: RPMI-8226 leukemia
M14 melanoma = system: M14 melanoma
HCT-116 colon = system: HCT-116 colon
SF-539 CNS = system: SF-539 CNS
IGROV1 ovarian = system: IGROV1 ovarian
NCI-H522 lung = system: NCI-H522 lung
OVCAR-4 ovarian = system: OVCAR-4 ovarian
MDA-MB-435 = system: MDA-MB-435
UO-31 renal = system: UO-31 renal
A498 renal = system: A498 renal
DU-145 prostate = system: DU-145 prostate
EKVX NSCLC = system: EKVX NSCLC
MALME-3M melanoma = system: MALME-3M melanoma
HCC-2998 colon = system: HCC-2998 colon
UACC-62 melanoma = system: UACC-62 melanoma
HT29 colon = system: HT29 colon
TK-10 renal = system: TK-10 renal

CCC1NC(=O)C(NC(=O)c2ncccc2O)C(C)OC(=O)C(c2ccccc2)NC(=O)C2CC(=O)CCN2C(=O)C(Cc2ccccc2)N(C)C(=O)C2CCCN2C1=O (stereo not given)
TGI (NCI-H226 lung): > 100000 nM
TGI (HOP-92 NSCLC): > 100000 nM
TGI (NCI-H23 lung): > 100000 nM
TGI (UACC-257 melanoma): > 100000 nM
TGI (BT-549 breast): > 100000 nM

CCCCOc1ccc(/C=N/Nc2cc(C)nc3ccc(Br)cc23)cc1
GI50 (K-562 leukemia): 1710 nM
TGI (K-562 leukemia): 3970 nM
GI50 (NCI-H460 lung): 2080 nM
TGI (NCI-H460 lung): 4060 nM
GI50 (CAKI-1 renal): 1710 nM
TGI (CAKI-1 renal): 3110 nM
GI50 (SN12C renal): 1740 nM
TGI (SN12C renal): 3250 nM
GI50 (NCI/ADR-RES ovarian): 1960 nM
TGI (NCI/ADR-RES ovarian): 3850 nM
GI50 (HOP-62 NSCLC): 1470 nM
TGI (HOP-62 NSCLC): 2940 nM
GI50 (HL-60(TB) leukemia): 2020 nM
TGI (HL-60(TB) leukemia): 4070 nM
GI50 (MDA-MB-231 breast): 1880 nM
TGI (MDA-MB-231 breast): 3510 nM
GI50 (OVCAR-5 ovarian): 1860 nM
TGI (OVCAR-5 ovarian): 3250 nM
GI50 (SF-295 CNS): 1820 nM
TGI (SF-295 CNS): 3360 nM
GI50 (SNB-19 CNS): 1860 nM
TGI (SNB-19 CNS): 3410 nM
GI50 (SNB-75 CNS): 1700 nM
TGI (SNB-75 CNS): 3240 nM
GI50 (MOLT-4 leukemia): 1910 nM
TGI (MOLT-4 leukemia): 4110 nM
GI50 (T-47D breast): 1690 nM
TGI (T-47D breast): 3600 nM
GI50 (CCRF-CEM leukemia): 1880 nM
TGI (CCRF-CEM leukemia): 4460 nM
GI50 (MCF7 breast): 1830 nM
TGI (MCF7 breast): 3680 nM
GI50 (U251 CNS): 1800 nM
TGI (U251 CNS): 3270 nM
GI50 (OVCAR-3 ovarian): 2060 nM
TGI (OVCAR-3 ovarian): 3840 nM
GI50 (SK-OV-3 ovarian): 1660 nM
TGI (SK-OV-3 ovarian): 3050 nM
GI50 (OVCAR-8 ovarian): 1770 nM
TGI (OVCAR-8 ovarian): 3530 nM
GI50 (786-0 renal): 1830 nM
TGI (786-0 renal): 3370 nM
GI50 (SK-MEL-5 melanoma): 1680 nM
TGI (SK-MEL-5 melanoma): 3050 nM
GI50 (PC-3 prostate): 1750 nM
TGI (PC-3 prostate): 3370 nM
GI50 (HS 578T breast): 1990 nM
TGI (HS 578T breast): 4710 nM
GI50 (A549 NSCLC): 1880 nM
TGI (A549 NSCLC): 3520 nM
GI50 (RXF 393 renal): 1600 nM
TGI (RXF 393 renal): 3050 nM
GI50 (KM12 colon): 1950 nM
TGI (KM12 colon): 3850 nM
GI50 (NCI-H226 lung): 1830 nM
TGI (NCI-H226 lung): 3820 nM
GI50 (HOP-92 NSCLC): 1540 nM
TGI (HOP-92 NSCLC): 3110 nM
GI50 (HCT-15 colon): 1610 nM
TGI (HCT-15 colon): 3050 nM
GI50 (NCI-H23 lung): 1860 nM
TGI (NCI-H23 lung): 3760 nM
GI50 (LOX IMVI melanoma): 1770 nM
TGI (LOX IMVI melanoma): 3240 nM
GI50 (UACC-257 melanoma): 1660 nM
TGI (UACC-257 melanoma): 3180 nM
GI50 (SK-MEL-28 melanoma): 1720 nM
TGI (SK-MEL-28 melanoma): 3130 nM
GI50 (COLO 205 colon): 1850 nM
TGI (COLO 205 colon): 3470 nM
GI50 (SK-MEL-2 melanoma): 1470 nM
TGI (SK-MEL-2 melanoma): 2860 nM
GI50 (ACHN renal): 1730 nM
TGI (ACHN renal): 3110 nM
GI50 (RPMI-8226 leukemia): 2030 nM
TGI (RPMI-8226 leukemia): 4580 nM
GI50 (BT-549 breast): 1770 nM
TGI (BT-549 breast): 3420 nM
GI50 (M14 melanoma): 1740 nM
TGI (M14 melanoma): 3200 nM
GI50 (HCT-116 colon): 1770 nM
TGI (HCT-116 colon): 3310 nM
GI50 (SF-539 CNS): 1840 nM
TGI (SF-539 CNS): 3290 nM
GI50 (IGROV1 ovarian): 1910 nM
TGI (IGROV1 ovarian): 3590 nM
GI50 (NCI-H522 lung): 1720 nM
TGI (NCI-H522 lung): 3210 nM
GI50 (OVCAR-4 ovarian): 1670 nM
TGI (OVCAR-4 ovarian): 3060 nM
GI50 (MDA-MB-435): 1800 nM
TGI (MDA-MB-435): 3270 nM
GI50 (UO-31 renal): 1480 nM
TGI (UO-31 renal): 2820 nM
GI50 (A498 renal): 1480 nM
TGI (A498 renal): 2850 nM
GI50 (DU-145 prostate): 1940 nM
TGI (DU-145 prostate): 3870 nM
GI50 (EKVX NSCLC): 1630 nM
TGI (EKVX NSCLC): 3030 nM
GI50 (MALME-3M melanoma): 1910 nM
TGI (MALME-3M melanoma): 3400 nM
GI50 (HCC-2998 colon): 2120 nM
TGI (HCC-2998 colon): 3730 nM
GI50 (UACC-62 melanoma): 1740 nM
TGI (UACC-62 melanoma): 3260 nM
GI50 (HT29 colon): 1550 nM
TGI (HT29 colon): 2970 nM
GI50 (TK-10 renal): 1910 nM
TGI (TK-10 renal): 3310 nM
